Where two headings read alike, the source gives them in different places.
Tests used:
[1] = test system: HIV-stimulated pDC; experiment: Activation markers and cytokine mRNA in HIV-stimulated pDC (RT-qPCR, flow cytometry); type: cell-based, human
[2] = test system: HIV-stimulated pDC; experiment: TRAIL relocalization to the membrane of HIV-stimulated pDC (3D microscopy); type: cell-based, human
Procedure: (§1) Cells were then incubated with anti-CXCR4 antibody (Biolegend, San Diego, Calif.) in saturation buffer PBS-BSA 0.5% for membrane staining or in permeabilizing buffer containing 1% saponin with monoclonal antibody anti-TRAIL (Biolegend, San Diego, Calif., USA). […] Nucleus was stained using DAPI (Molecular Probes, Paisley, UK). Slides were mounted with Fluoromount-G (eBioscience, CA, USA) and scanned with a Nikon Eclipse 90i Upright microscope (Nikon Instruments Europe, Badhoevedorp, The Netherlands) using a 100× Plan Apo VC piezo objective (NA 1.4) and Chroma bloc filters (ET-DAPI, ET-GFP) and were subsequently deconvoluted with a Meinel algorithm and 8 iterations and analyzed using Metamorph® (MDS Analytical Technologies, Winnersh, UK). TRAIL/DAPI/Overlay/Confocal plane: Representative 2D focal plan. Overlay with bright: Bright. Reconvolution overlays: 2D projections of the maximum intensity pixels along the Z-axis.
7 pictures were taken from each slide for each Z section framing the nucleus. Quantification of the colocalization in the cytoplasm of purified pDC using Mander's Coefficient was obtained after analyze by JACoP pluging in ImageJ.

[3] = test system: HIV-stimulated pDC; experiment: IFN-α / type I IFN production by HIV-stimulated purified pDC (ELISA); type: cell-based, human
[4] = test system: pDC; experiment: Cytotoxicity of compounds on cultured pDC
[5] = target: T1, CXCR4 (Homo sapiens, UniProt P61073); experiment: CXCR4 internalization and co-localization in pDC (microscopy); type: cell-based; settings: confocal microscopy
T1 sequence (P61073 whole entry): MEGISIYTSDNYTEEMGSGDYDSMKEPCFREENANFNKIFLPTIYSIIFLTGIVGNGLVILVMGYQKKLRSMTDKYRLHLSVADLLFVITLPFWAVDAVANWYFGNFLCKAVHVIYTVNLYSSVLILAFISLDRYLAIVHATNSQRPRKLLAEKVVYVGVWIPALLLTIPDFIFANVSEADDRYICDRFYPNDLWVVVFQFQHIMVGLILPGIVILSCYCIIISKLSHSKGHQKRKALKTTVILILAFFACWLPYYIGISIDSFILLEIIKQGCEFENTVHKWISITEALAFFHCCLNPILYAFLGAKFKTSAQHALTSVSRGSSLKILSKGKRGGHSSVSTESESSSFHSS
Procedure: as §1, with “Reconvolution overlays: 2D projections of the maximum intensity pixels along the Z-axis.” left out
In other cases, cells were cultured overnight in media alone then were washed in ice-cold PBS-BSA 0.2% and stained with CXCR4 antibody (R&D Systems) for 1 hour at 4° C. […] Data are expressed as the mean percentage ±SEM mean channel fluorescence intensity (MFI) values for residual surface expression and intracellular staining. […]
7 pictures were taken from each slide for each Z section framing the nucleus. Quantification of the colocalization in the cytoplasm of purified pDC using Mander's Coefficient was obtained after analyze by JACoP pluging in ImageJ. […]

[6] = target: H4R (Homo sapiens, UniProt Q9H3N8); type: cell-based; settings: H4R siRNA, human primary pDC
H4R, sequence (Q9H3N8 whole entry): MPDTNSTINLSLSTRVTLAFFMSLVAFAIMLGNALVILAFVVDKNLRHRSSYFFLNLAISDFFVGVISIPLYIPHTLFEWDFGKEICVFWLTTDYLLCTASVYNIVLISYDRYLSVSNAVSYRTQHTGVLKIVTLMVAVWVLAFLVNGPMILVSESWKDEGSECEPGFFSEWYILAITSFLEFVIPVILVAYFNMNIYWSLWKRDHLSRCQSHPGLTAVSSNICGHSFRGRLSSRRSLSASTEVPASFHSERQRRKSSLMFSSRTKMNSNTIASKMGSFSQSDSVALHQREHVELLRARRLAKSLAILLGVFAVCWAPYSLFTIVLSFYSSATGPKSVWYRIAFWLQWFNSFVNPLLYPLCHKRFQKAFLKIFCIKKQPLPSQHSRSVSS

[7] = test system: human Flu-activated primary PBMC; experiment: cells; type: cell-based
[8] = test system: 129S8 mice infected with Influenza A virus strain X31 (H3N2); settings: mouse, in vivo
[9] = target: T1, CXCR4; settings: Jurkat cells, 1 mM, 4° C. for 30 min
[10] = target: T1, CXCR4
[11] = test system: flu-exposed human PBMC; type: cell-based
[12] = test system: human primary PBMC
[13] = test system: pristane-induced SLE in Balb/c mice; experiment: Pristane-induced systemic lupus erythematosus (SLE) model in Balb/c mice; type: in vivo, mouse; settings: 3, 10, 30 mg/kg IP QD
Procedure: Receive and quarantine (SOP 560) 70 female Balb/C (20-25 g) mice and house in filter-topped cages supplied with autoclaved bedding.
The animals are weighed, ear tagged for individual identification and randomly assigned to 8 treatment groups of 8 animals each and two groups of 3 animals (for pre-tolerance at 30 mg/kg of survival).
The test items compounds clobenpropit (CB) and IT1t are stored at 4° C.
Mouse weights are recorded twice a week, and daily observations for clinical signs.
Collected sera are stored at −80° C. for measurements of autoantibody on weeks 4, 8 and 10. (Predose will kept at −80° C. for potential use). Anti-dsDNA level is a standard screening readout for identifying efficacy of test compounds in a SLE model.
Measurements: weeks 4, 8, 10: (1) autoantibody (anti-dsDNA), collagen and cytokines TNFα, IL-6 and TRAIL by ELISA and (2) ANA antibody by IFA.

[14] = in vitro
[15] = test system: HIV or LPS stimulated monocytes; experiment: IFN-γ mRNA in monocytes stimulated with HIV or LPS (RT-qPCR); type: cell-based; settings: RT-qPCR normalized to RPL13A
Procedure: Data shown are representative of two independent experiments.
Monocytes were pre-incubated with clobenpropit (CB), IT1t or chloroquine before being activated by HIV and LPS. IFN-γ levels were measured by RT-qPCR and normalized to RPL13A mRNA expression.

[16] = test system: NK cells activated by K562 cells; experiment: IFN-γ, TNF-α and CD107a expression by NK cells activated by K562 cells (flow cytometry); type: cell-based; settings: treated 1 hour, then activated by K562 cells
[17] = test system: collagen-induced arthritis in DBA1/J mice; experiment: Therapeutic collagen-induced arthritis model in DBA1/J mice; type: in vivo, mouse; settings: for inhibition of disease severity: Day 28-42, at termination (Day 42); for average AI (Arthritic Index): maximum AI=16
Procedure: 80 DBA1/J mice (male, 7-8 weeks) was received and placed in quarantine for 3 days with daily inspections. Ear tag mice for individual identification.
Individual mouse weights were recorded. Hind paw thickness were recorded by digital caliper. 80 mice subcutaneous were injected with collagen/CFA emulsion (0.05 ml/mouse; 100 μg/mouse collagens in CFA) using a 1 ml syringe fitted with a 25G needle. Mice returned to cages.
80 mice were boosted with collagen/ICFA emulsion. Then their individual weights were recorded.
Mice were scored for signs of arthritis:
7) Calculate Arthritic Index (AI) by addition of individual paw scores and record.
Mice with an AI score within a range of 2-6 were selected for assignment to groups for therapeutic dosing as in Table 4.
Begin intraperitoneal (IP) dosing once daily (QD) according to Table 4.
The compounds clobenpropit (CB) and IT1t were tested. CB and IT1t were stored at 4° C. […] These compounds were doses 7 days per week (Saturday and Sunday included) daily for 14 days.
Mice were weighed, scored for signs or arthritis, and hind paw thickness is measured by digital caliper three-times weekly (Monday, Wednesday and Friday). Any adverse reactions to treatment were recorded.
Termination: AI score were recorded for each limb. The paw thickness of the hind limbs is measured with digital caliper. Mice were anesthetized and exsanguinated into pre-chilled EDTA-tubes.
2) Plasma was assayed by ELISA for IL-1β, IL-6, TRAIL. Then, all limbs were collected.

[18] = Solubility of test compounds
[19] = 3 mg/kg IP once daily, at termination (Day 42)
[20] = 10 mg/kg IP once daily, at termination
[21] = 30 mg/kg IP once daily, at termination

c1cc(CN2CCCNCCNCCCNCC2)ccc1CN1CCCNCCNCCCNCC1 [AMD3100]
type I IFN and TRAIL expression by HIV-activated pDC, compound alone [1]: did not block
effect on biological activities of histamine and CB on HIV activated-pDC ([1]; pre-incubation 1 hour (20 μM) before histamine or CB): drastically abolished

NCCc1cc(=O)oc2c3c4c(cc12)CCCN4CCC3 [FFN-511, FFN511]
iNOS or IL-15 gene expression ([1]; HIV-1-stimulated pDC, RT-qPCR): neither CB nor FFN-511 affected
transcription of virus-induced genes (TRAIL, IFNs, IL6, IL8, IL10, CXCL10, ISG56) induced in pDC by HIV-1 ([1]; RT-qPCR profiling, normalized to RPL13A): dramatically inhibited
TRAIL localization to the cell membrane in HIV-stimulated pDC [2]: significantly inhibited
IFN type I production by HIV-stimulated pDC ([3]; 50 μM): strongly reduced
cytotoxic effect on pDC ([4]; 50 μM): without any obvious cytotoxic effect
co-localization with CXCR4 in pDC [5]: strong degree of co-localization

NCCc1c[nH]cn1 [Histamine]
effect of H4R knock down on inhibitory activity on IFN-α, IFN-β and TRAIL productions by HIV-stimulated pDC [6]: did not block
EC50 [7]: 1.4 ± 1 µM
inhibitory effect on pDC activation / IFN-α production by HIV-1 ([3]; purified pDC, 10 μM): active
IFN-α, IFN-β and IFN-λ2/3 protein production in bronchioalveolar lavage (BAL) fluid [8]: a trend towards IFN reduction that was not statistically significant
cytotoxicity on purified pDC ([4]; 10 μM): without obvious toxicity
binding of the CXCR4 antibody 12G5 on T cells [9]: inhibited
effect of CXCR4 gene silencing on the inhibitory effect on type I IFN and TRAIL ([10]; pDC stimulated by CXCR4-tropic HIV-1): suppressed
IFN-α/β and IFN-λ2/3 mRNA levels [11]: significantly reduced
Therapeutic index (Ratio TC50/EC50) [12]: <1500
TC50 ([12]; human): <2000 µM

CC1(C)CN2C(CS/C(=N\C3CCCCC3)NC3CCCCC3)=CSC2=N1 [IT1t]
effect on cytokine production of activated pDC compared with CB [1]: stronger effect
IFN-α, IFN-β and TRAIL expression by HIV-stimulated pDC ([1]; 1 hour pre-culture, HIV X4): inhibited
symptoms of pristane-Induced Systemic Lupus Erythematosus [13]: reduce symptoms
ds-DNA level ([13]; compared to group 1 (vehicle)): inhibition
EC50 ([7]; read-out: EC50): 7.1 ± 1 µM
CC50 ([14]; human): 238 ± 21 µM
IFN-γ expression by HIV or LPS stimulated monocytes [15]: inhibit
IFN-γ, TNF-α and CD107a expression by NK cells [16]: decrease
reduction in terminal plasma concentration of IL-1β ([17]; 3 mg/kg IP once daily): 49%
reduction in terminal plasma concentration of TRAIL ([17]; 3 mg/kg IP once daily): 62%
inhibition of disease severity ([17]; 3 mg/kg IP once daily): no amelioratory effect
average AI (Arthritic Index) [17, 19]: 13.1
reduction in terminal plasma concentration of IL-1β ([17]; 10 mg/kg IP once daily): 53%
reduction in terminal plasma concentration of IL-6 ([17]; 10 mg/kg IP once daily): 30%
reduction in terminal plasma concentration of TRAIL ([17]; 10 mg/kg IP once daily): 46%
reduction in disease severity [17, 20]: 40%
average AI (Arthritic Index) [17, 20]: 7.9
reduction in terminal plasma concentration of IL-1β ([17]; 30 mg/kg IP once daily): 69%
reduction in terminal plasma concentration of IL-6 ([17]; 30 mg/kg IP once daily): 66%
reduction in terminal plasma concentration of TRAIL ([17]; 30 mg/kg IP once daily): 51%
reduction in disease severity [17, 21]: 63%
average AI (Arthritic Index) [17, 21]: 4.9
disease progression over the dose range ([17]; 3, 10 and 30 mg/kg daily intraperitoneal injection): dose-dependent inhibition
toxicity at the efficient concentrations [4]: not toxic
toxicity at higher concentrations ([4]; diluted in DMSO): some toxicity
type I IFN reduction in CXCR4 siRNA-treated cells ([10]; pDC stimulated with HIV X4 or HIV R5, active with control siRNA): lost its biological activity
solubility ([18]; PBS, aqueous buffer): > 50 mg/mL
solubility ([18]; water): > 50 mg/mL
Therapeutic index (Ratio TC50/EC50) [12]: 33.5

NCCc1c[nH]c2ccc(O)cc12 [Serotonin, serotonin]
CC50 [14]: 1500 ± 54 µM

CCN(CC)CCCC(C)Nc1ccnc2cc(Cl)ccc12 (stereo not drawn) [chloroquine]
IFN-γ expression by HIV or LPS stimulated monocytes [15]: inhibit

C[C@]12C=CC(=O)C=C1CC[C@@H]1[C@@H]2[C@@H](O)C[C@@]2(C)[C@H]1CC[C@]2(O)C(=O)CO [prednisolone]
reduction in terminal plasma concentration of IL-1β ([17]; 3 mg/kg IP once daily): 62%
reduction in terminal plasma concentration of IL-6 ([17]; 3 mg/kg IP once daily): 79%
reduction in terminal plasma concentration of TRAIL ([17]; 3 mg/kg IP once daily): 72%
inhibition of disease severity ([17]; 3 mg/kg IP once daily): 82%
average AI (Arthritic Index) [17, 19]: 2.4

NCCCNCCCCNCCCN [spermin, spermine]
IFN-γ, TNF-α and CD107a expression by NK cells [16]: decrease

CXCL12: CXCR4 natural ligand
IFN-α/β mRNA expressions by HIV stimulated pDC ([1]; 62.5 nM, pre-incubation 15 min, 30 min, 60 min): did not reduce
type I IFN mRNA expression by HIV stimulated pDC ([1]; 10 μM): did not inhibit

Source: patent publication US20190175557A1, “COMPOUNDS USEFUL FOR DECREASING INTERFERON LEVEL” (priority 2016, published 2019)
